Data taken from ChEMBL document CHEMBL4433219, “EC18 as a Tool To Understand the Role of HCN4 Channels in Mediating Hyperpolarization-Activated Current in Tissues” (ACS Med Chem Lett, 2019).
The source made the active and inactive calls. The calls are words filed in the database; no cut-off is given here.

Legend:
Mus musculus = species on record: Mus musculus; assay: Effect on transient A type potassium channel in C57BL/6J mouse thalamocortical relay neuron assessed as effect on early transient current at 10 uM by whole cell patch clamp assay relative to control
[1] = test system: Cardiac muscle of left ventricle; assay: (§1) Effect on cardiac electrophysiological profile in Mongrel perfused dog heart left ventricular muscle stimulated at basic cycle length of 1000 milliseconds assessed as action potential amplitude at 10 uM measured after 25 mins by glass capillary microelectrode based electrophysiology assay (reference value: 104.1 +/- 2.7 mV); assay type: functional, Canis lupus familiaris
[2] = target: Potassium/sodium hyperpolarization-activated cyclic nucleotide-gated channel 1 (Mus musculus, UniProt O88704); assay: Inhibition of mouse HCN1 expressed in HEK293 cells assessed as reduction in hyperpolarization activated current at holding potential of -80 mV by patch clamp assay; assay type: cell-based
Chain of Potassium/sodium hyperpolarization-activated cyclic nucleotide-gated channel 1 (O88704 whole entry): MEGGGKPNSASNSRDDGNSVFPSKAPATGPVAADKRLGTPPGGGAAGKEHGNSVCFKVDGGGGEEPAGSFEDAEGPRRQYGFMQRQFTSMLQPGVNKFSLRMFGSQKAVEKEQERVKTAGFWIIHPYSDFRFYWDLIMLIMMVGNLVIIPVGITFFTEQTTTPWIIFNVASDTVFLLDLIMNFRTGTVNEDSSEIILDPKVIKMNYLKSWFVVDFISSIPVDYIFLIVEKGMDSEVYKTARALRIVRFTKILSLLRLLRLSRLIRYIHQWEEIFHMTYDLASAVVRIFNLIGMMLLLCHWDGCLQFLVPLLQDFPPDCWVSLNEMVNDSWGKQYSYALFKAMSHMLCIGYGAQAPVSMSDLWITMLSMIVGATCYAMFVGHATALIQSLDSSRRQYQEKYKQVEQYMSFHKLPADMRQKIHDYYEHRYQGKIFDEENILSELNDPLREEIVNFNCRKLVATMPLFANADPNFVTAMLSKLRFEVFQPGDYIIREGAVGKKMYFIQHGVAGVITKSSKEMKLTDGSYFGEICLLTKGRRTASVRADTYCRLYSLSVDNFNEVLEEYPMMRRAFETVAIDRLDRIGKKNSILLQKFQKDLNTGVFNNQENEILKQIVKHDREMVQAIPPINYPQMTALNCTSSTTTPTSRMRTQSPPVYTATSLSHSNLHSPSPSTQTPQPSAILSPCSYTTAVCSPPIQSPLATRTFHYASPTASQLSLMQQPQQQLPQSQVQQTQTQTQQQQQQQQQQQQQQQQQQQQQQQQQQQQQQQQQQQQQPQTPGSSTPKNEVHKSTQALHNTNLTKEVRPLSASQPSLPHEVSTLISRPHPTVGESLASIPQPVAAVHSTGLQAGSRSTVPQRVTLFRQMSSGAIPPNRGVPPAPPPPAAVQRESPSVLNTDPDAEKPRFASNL

[3] = test system: Cardiac muscle of left ventricle; assay: as §1, with “as Vmax” for “as action potential amplitude”, “at 1” for “at 10”, “value: 244.6” for “value: 104.1”, “+/- 30.87 V/s)” for “+/- 2.7 mV)”; assay type: functional, Canis lupus familiaris
[4] = Selectivity ratio of EC50 for human HCN2 to EC50 for mouse HCN4
[5] = test system: Cardiac muscle of left ventricle; assay: as §1, with “potential time duration” for “potential amplitude”, “at 50% of repolarization at 1” for “at 10”, “value: 176” for “value: 104.1”, “+/- 16.36 milliseconds)” for “+/- 2.7 mV)”; assay type: functional, Canis lupus familiaris
[6] = test system: Cardiac muscle of left ventricle; assay: as §1, with “conduction time” for “action potential amplitude”, “4.8” for “104.1”, “0.60 milliseconds)” for “2.7 mV)”; assay type: functional, Canis lupus familiaris
[7] = Negative chronotropic activity at HCN4 in guinea-pig spontaneously beating isolated atria; details: Cavia porcellus
[8] = test system: Cardiac muscle of left ventricle; assay: as §1, with “time duration at 10% of repolarization” for “amplitude”, “69.9” for “104.1”, “10.84 milliseconds)” for “2.7 mV)”; assay type: functional, Canis lupus familiaris
[9] = target: T1, Potassium/sodium hyperpolarization-activated cyclic nucleotide-gated channel 4 (Mus musculus, UniProt O70507); assay: Inhibition of HCN4 in C57BL/6J mouse thalamocortical relay neuron assessed as reduction in hyperpolarization current at holding potential of -120 mV by whole-cell patch clamp assay
T1 sequence (O70507 whole entry): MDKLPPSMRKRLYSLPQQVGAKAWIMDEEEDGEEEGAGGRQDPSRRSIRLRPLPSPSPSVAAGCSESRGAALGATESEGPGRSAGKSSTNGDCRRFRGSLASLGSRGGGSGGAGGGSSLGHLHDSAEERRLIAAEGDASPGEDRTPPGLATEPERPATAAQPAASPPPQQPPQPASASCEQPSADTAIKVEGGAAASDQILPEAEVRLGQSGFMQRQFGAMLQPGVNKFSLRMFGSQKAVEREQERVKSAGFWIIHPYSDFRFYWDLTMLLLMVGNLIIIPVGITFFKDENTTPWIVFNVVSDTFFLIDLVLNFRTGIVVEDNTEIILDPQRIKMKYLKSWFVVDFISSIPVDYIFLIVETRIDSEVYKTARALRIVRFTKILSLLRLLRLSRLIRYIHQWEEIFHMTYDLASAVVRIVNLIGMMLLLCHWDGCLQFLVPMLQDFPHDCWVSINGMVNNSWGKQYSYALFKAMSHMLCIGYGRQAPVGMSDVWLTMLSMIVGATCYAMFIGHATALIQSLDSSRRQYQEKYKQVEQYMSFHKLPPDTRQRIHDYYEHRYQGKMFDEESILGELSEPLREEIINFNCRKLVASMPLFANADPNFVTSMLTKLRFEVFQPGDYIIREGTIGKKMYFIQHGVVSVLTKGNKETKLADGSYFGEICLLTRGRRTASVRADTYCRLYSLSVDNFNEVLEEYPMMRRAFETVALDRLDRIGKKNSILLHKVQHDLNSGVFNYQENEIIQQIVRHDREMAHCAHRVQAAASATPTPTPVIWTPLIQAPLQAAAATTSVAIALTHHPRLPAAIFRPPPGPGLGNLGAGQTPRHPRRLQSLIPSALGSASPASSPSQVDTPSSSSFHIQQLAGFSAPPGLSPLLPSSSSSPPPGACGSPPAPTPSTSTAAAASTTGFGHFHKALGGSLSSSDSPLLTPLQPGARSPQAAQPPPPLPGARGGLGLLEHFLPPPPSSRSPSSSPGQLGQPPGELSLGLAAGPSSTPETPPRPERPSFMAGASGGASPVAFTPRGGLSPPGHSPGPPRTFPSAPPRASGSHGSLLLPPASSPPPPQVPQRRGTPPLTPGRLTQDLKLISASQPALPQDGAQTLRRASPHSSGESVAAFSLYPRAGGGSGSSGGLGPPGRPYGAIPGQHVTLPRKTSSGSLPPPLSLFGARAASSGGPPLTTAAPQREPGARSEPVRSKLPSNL

Question: What does the source list for `COc1ccc(CCN(C)[C@@H]2CCC[C@H](N3CCc4cc(OC)c(OC)cc4CC3=O)C2)cc1OC` (racemic)?
Answer: Activity (Mus musculus): inactive; Activity [1]: 102.3 mV; EC50 [2]: 21 µM; Activity [3]: 232.9 V/s; Ratio EC50 [4]: 5; Time [5]: 168.3 ms; Time [6]: 5 ms; IC50 [7]: 9.9 µM; Time [8]: 55.7 ms; EC50 [9]: 11 µM
